Test results from patent US20240301319A1, “PERFUMING COMPOSITIONS” (FIRMNICH SA, priority 2017, published 2024).

Assays:
[1] = Volatility of perfuming compounds (Tables 4 to 10), with top/middle/bottom note type; format: physicochemical
Procedure: In some aspects, the first perfume accord comprises perfuming compounds having a volatility ranging from 70,000 to 100 μg/l in air. In some aspects, perfuming compounds having a volatility ranging from 70,000 to 100 μg/l in air are referred to as “top notes”.
In some aspects, the second perfume accord comprises perfuming compounds having a volatility ranging from 99 to 50 μg/l in air. In some aspects, perfuming compounds having a volatility ranging from 99 to 50 μg/l in air are referred to as “middle notes”.
In some aspects, the third perfume accord comprises perfuming compounds having a volatility ranging from 49 to 0.1 μg/l in air. In some aspects, perfuming compounds having a volatility ranging from 49 to 0.1 μg/l in air are referred to as “bottom notes”.
Tables 4 to 10 describe top, middle and bottom note perfuming compounds for watery, green, fruity, citrus, sweet, gourmand and woody notes respectively.

[2] = Odor threshold and odor value of perfuming compounds (Tables 4 to 10)
[3] = Table 4, watery note, top, middle or bottom note
[4] = Table 4, watery note, equals volatility divided by odor threshold
[5] = Table 6, perfuming compounds having a fruity note
[6] = Table 6, perfuming compounds having a fruity note, note type by volatility
[7] = Table 7, citrus note, top, middle or bottom note
[8] = Table 7, citrus note, equals volatility divided by odor threshold
[9] = note type (Top/Middle/Bottom) by volatility, perfuming compounds having a green note
[10] = perfuming compounds having a green note
[11] = Table 8, perfuming compounds having a sweet note
[12] = Table 8, perfuming compounds having a sweet note, note type by volatility
[13] = Table 9, perfuming compounds having a gourmand note, note type by volatility
[14] = Table 10, perfuming compounds having a woody note, note type by volatility

3-(4-ETHYLPHENYL)-2,2-DIMETHYLPROPANAL (A) + 3-(2-ETHYLPHENYL)-2,2-DIMETHYLPROPANAL (B)
Volatility (μg/l air) ([1]; Table 4, watery note): 48.69 μg/l air | Type [1, 3]: bottom (perfuming compounds having a volatility ranging from 49 to 0.1 μg/l in air are referred to as “bottom notes”) | Odor Threshold (μg/l air) ([2]; Table 4, watery note): 5.33E−03 μg/l air | Odor Value [2, 4]: 9.14E+03

8(9)-METHOXY-TRICYCLO[5.2.1.0(2,6)]DECANE-3(4)-CARBALDEHYDE
Volatility (μg/l air) ([1]; Table 4, watery note): 5.87 μg/l air | Type [1, 3]: bottom (perfuming compounds having a volatility ranging from 49 to 0.1 μg/l in air are referred to as “bottom notes”) | Volatility [1, 5]: 5.87 μg/l air | Type [1, 6]: Bottom | Volatility (μg/l air) ([1]; Table 7, citrus note): 5.87 μg/l air | Type [1, 7]: Bottom | Odor Threshold (μg/l air) ([2]; Table 4, watery note): 4.02E−05 μg/l air | Odor Value [2, 4]: 1.46E+05 | Odor Threshold [2, 5]: 4.02E−05 μg/l air | Odor Value [2, 5]: 1.46E+05 | Odor Threshold (μg/l air) ([2]; Table 7, citrus note): 4.02E−05 μg/l air | Odor Value [2, 8]: 1.46E+05

CC(C)=CC1CC(C)CCO1 (stereo not drawn)
Type [1, 9]: Top | Volatility (μg/l air) [1, 10]: 2483.93 μg/l air | Odor Threshold (μg/l air) [2, 10]: 8.77E−04 μg/l air

CCCCCC1CCCC(=O)O1 (racemic) [(+−)-6-pentyltetrahydro-2H-pyran-2-one]
Volatility [1, 5]: 9.61 μg/l air | Type [1, 6]: Bottom | Volatility [1, 11]: 9.61 μg/l air | Type [1, 12]: Bottom | Volatility ([1]; Table 9, gourmand note): 9.61 μg/l air | Type [1, 13]: Bottom | Odor Threshold [2, 5]: 3.72E−05 μg/l air | Odor Value [2, 5]: 2.58E+05 | Odor Threshold [2, 11]: 3.72E−05 μg/l air | Odor Value [2, 11]: 2.58E+05 | Odor Threshold ([2]; Table 9, gourmand note): 3.72E−05 μg/l air

CCCCCCOC(=O)C(C)C [hexyl 2-methylpropanoate]
Volatility [1, 5]: 1661.18 μg/l air | Type [1, 6]: TOP (perfuming compounds having a volatility ranging from 70,000 to 100 μg/l in air are referred to as “top notes”) | Type [1, 9]: Top | Volatility (μg/l air) [1, 10]: 1661.18 μg/l air | Odor Threshold (μg/l air) [2, 10]: 7.15E−01 μg/l air

COC(OC)C(C)(C)CC=C(C)C
Type [1, 14]: Top | Volatility ([1]; Table 10, woody note): 1311.32 μg/l air | Odor Threshold ([2]; Table 10, woody note): 1.26E−02 μg/l air

O=C1CCCCCCCCCCC(=O)OCCO1 [1,4-dioxacyclohexadecane-5,16-dione]
Volatility [1, 11]: 0.46 μg/l air | Type [1, 12]: Bottom | Odor Threshold [2, 11]: 7.05E−04 μg/l air | Odor Value [2, 11]: 6.55E+02

CCC(=O)/C=C/C1=C(C)CCCC1(C)C
Volatility [1, 11]: 15.81 μg/l air | Type [1, 12]: Bottom | Volatility ([1]; Table 9, gourmand note): 15.81 μg/l air | Type [1, 13]: Bottom | Odor Threshold [2, 11]: 1.16E−04 μg/l air | Odor Value [2, 11]: 1.37E+05 | Odor Threshold ([2]; Table 9, gourmand note): 1.16E−04 μg/l air

C/C=C/c1ccc(O)c(OC)c1 [2-methoxy-4-[(1E)-1-propen-1-yl]phenol]
Volatility [1, 11]: 11.28 μg/l air | Type [1, 12]: Bottom | Volatility ([1]; Table 9, gourmand note): 11.28 μg/l air | Type [1, 13]: Bottom | Odor Threshold [2, 11]: 6.63E−06 μg/l air | Odor Value [2, 11]: 1.70E+06 | Odor Threshold ([2]; Table 9, gourmand note): 6.63E−06 μg/l air

(Z)-3,7-DIMETHYL-2,6-OCTADIENAL (A) + (E)-3,7-DIMETHYL-2,6-OCTADIENAL (B)
Volatility (μg/l air) ([1]; Table 7, citrus note): 202.66 μg/l air | Type [1, 7]: Top | Odor Threshold (μg/l air) ([2]; Table 7, citrus note): 4.12E−03 μg/l air | Odor Value [2, 8]: 4.92E+04

CCC(CC(C)CC)=NO (stereo not drawn) [5-METHYL-3-HEPTANONE OXIME]
Volatility [1, 5]: 128.04 μg/l air | Type [1, 6]: TOP (perfuming compounds having a volatility ranging from 70,000 to 100 μg/l in air are referred to as “top notes”) | Volatility [1, 11]: 128.04 μg/l air | Type [1, 12]: Top | Type [1, 9]: Top | Volatility (μg/l air) [1, 10]: 128.04 μg/l air | Odor Threshold [2, 5]: 8.80E−03 μg/l air | Odor Value [2, 5]: 1.45E+04 | Odor Threshold [2, 11]: 8.80E−03 μg/l air | Odor Value [2, 11]: 1.45E+04 | Odor Threshold (μg/l air) [2, 10]: 8.80E−03 μg/l air

CC/C=C\CC/C=C/C=O [(2E,6Z)-2,6-NONADIENAL]
Type [1, 9]: Top | Volatility (μg/l air) [1, 10]: 632.43 μg/l air | Odor Threshold (μg/l air) [2, 10]: 1.46E−04 μg/l air

CCCCCCC1CCC(=O)O1 (racemic) [(+−)-4-DECANOLIDE]
Volatility [1, 5]: 10.49 μg/l air | Type [1, 6]: Bottom | Volatility [1, 11]: 10.49 μg/l air | Type [1, 12]: Bottom | Volatility ([1]; Table 9, gourmand note): 10.49 μg/l air | Type [1, 13]: Bottom | Odor Threshold [2, 5]: 1.61E−04 μg/l air | Odor Value [2, 5]: 6.51E+04 | Odor Threshold [2, 11]: 1.61E−04 μg/l air | Odor Value [2, 11]: 6.51E+04 | Odor Threshold ([2]; Table 9, gourmand note): 1.61E−04 μg/l air

CC(C=O)Cc1ccc(C(C)(C)C)cc1 (racemic) [(+−)-2-methyl-3-[4-(2-methyl-2-propanyl)phenyl]propanal]
Volatility (μg/l air) ([1]; Table 4, watery note): 12.86 μg/l air | Type [1, 3]: bottom (perfuming compounds having a volatility ranging from 49 to 0.1 μg/l in air are referred to as “bottom notes”) | Odor Threshold (μg/l air) ([2]; Table 4, watery note): 2.39E−04 μg/l air | Odor Value [2, 4]: 5.38E+04

CC1=C[C@H](C)[C@H]2[C@H](CCC(C)(C)[C@H]2O)C1 (racemic)
Volatility [1, 5]: 48.90 μg/l air | Type [1, 6]: Bottom | Type [1, 9]: Bottom | Volatility (μg/l air) [1, 10]: 48.90 μg/l air | Odor Threshold [2, 5]: 8.15E−04 μg/l air | Odor Value [2, 5]: 6.00E+04 | Odor Threshold (μg/l air) [2, 10]: 8.15E−04 μg/l air

CC/C=C\CCO [(Z)-3-HEXEN-1-OL]
Type [1, 9]: Top | Volatility (μg/l air) [1, 10]: 5986.62 μg/l air | Odor Threshold (μg/l air) [2, 10]: 1.13E−02 μg/l air

CCCCCC=O [hexanal]
Volatility (μg/l air) ([1]; Table 7, citrus note): 68294.85 μg/l air | Type [1, 7]: Top | Type [1, 9]: Top | Volatility (μg/l air) [1, 10]: 68294.85 μg/l air | Odor Threshold (μg/l air) ([2]; Table 7, citrus note): 1.76E−03 μg/l air | Odor Value [2, 8]: 3.88E+07 | Odor Threshold (μg/l air) [2, 10]: 1.76E−03 μg/l air

COc1ccc2ccccc2c1 [2-METHOXYNAPHTHALENE]
Odor Threshold [2, 11]: 1.02E−05 μg/l air | Odor Value [2, 11]: 5.00E+06 | Odor Threshold ([2]; Table 9, gourmand note): 1.02E−05 μg/l air

CC(C)CC(=O)O [3-METHYLBUTANOIC ACID]
Odor Threshold ([2]; Table 10, woody note): 2.23E−04 μg/l air

C=CCOC(=O)CCCCC [ALLYL HEXANOATE]
Volatility [1, 5]: 941.49 μg/l air | Type [1, 6]: TOP (perfuming compounds having a volatility ranging from 70,000 to 100 μg/l in air are referred to as “top notes”)

CC(C)=CCC/C(C)=C\CO
Volatility (μg/l air) ([1]; Table 7, citrus note): 86.02 μg/l air | Type [1, 7]: Middle

CC1(C)CCC[C@]2(C)[C@H]3CCO[C@]3(C)CC[C@@H]12
Type [1, 14]: Bottom

COC(=O)C=C1CCCC1 [methyl cyclopentylideneacetate]
Volatility [1, 5]: 1091.46 μg/l air | Type [1, 6]: TOP (perfuming compounds having a volatility ranging from 70,000 to 100 μg/l in air are referred to as “top notes”)

CCCCCCC(=O)OCC [ethyl heptanoate]
Volatility [1, 5]: 3052.89 μg/l air | Type [1, 6]: TOP (perfuming compounds having a volatility ranging from 70,000 to 100 μg/l in air are referred to as “top notes”)

(+−)-(3E)-3-methyl-4-(2,6,6-trimethyl-2-cyclohexen-1-yl)-3-buten-2-one (A) + (+−)-(1E)-1-(2,6,6-trimethyl-2-cyclohexen-1-yl)-1-penten-3-one (B)
Type [1, 7]: Bottom

O=Cc1ccccc1 [BENZALDEHYDE]
Volatility [1, 11]: 8207.00 μg/l air | Type [1, 12]: Top | Type [1, 9]: Top | Volatility (μg/l air) [1, 10]: 8207.00 μg/l air

CCCOC(=O)[C@H](C)OC(C)(C)CC
Volatility [1, 5]: 995.16 μg/l air | Type [1, 6]: TOP (perfuming compounds having a volatility ranging from 70,000 to 100 μg/l in air are referred to as “top notes”)

Cc1ccc(OC(=O)C(C)C)cc1 [4-METHYLPHENYL ISOBUTYRATE]
Volatility [1, 5]: 167.81 μg/l air | Type [1, 6]: TOP (perfuming compounds having a volatility ranging from 70,000 to 100 μg/l in air are referred to as “top notes”)

C=CC(=C)CCC=C(C)C
Volatility [1, 5]: 15094.56 μg/l air | Type [1, 6]: TOP (perfuming compounds having a volatility ranging from 70,000 to 100 μg/l in air are referred to as “top notes”)

CCCCCC(C)=O [2-HEPTANONE]
Volatility [1, 5]: 26409.73 μg/l air | Type [1, 6]: TOP (perfuming compounds having a volatility ranging from 70,000 to 100 μg/l in air are referred to as “top notes”)

CCCCCCCC1CCC(=O)O1 (racemic) [(+−)-5-heptyldihydro-2(3H)-furanone]
Odor Threshold [2, 5]: 3.16E−05 μg/l air | Odor Value [2, 5]: 1.16E+05 | Odor Threshold [2, 11]: 3.16E−05 μg/l air | Odor Value [2, 11]: 1.16E+05 | Odor Threshold ([2]; Table 9, gourmand note): 3.16E−05 μg/l air

C=C1CCCC(C)(C)C1C(=O)OC (racemic)
Volatility [1, 5]: 1089.25 μg/l air | Type [1, 6]: TOP (perfuming compounds having a volatility ranging from 70,000 to 100 μg/l in air are referred to as “top notes”)

CC/C=C\CCCCCO [(Z)-6-NONEN-1-OL]
Volatility (μg/l air) ([1]; Table 4, watery note): 6.91 μg/l air | Type [1, 3]: bottom (perfuming compounds having a volatility ranging from 49 to 0.1 μg/l in air are referred to as “bottom notes”) | Type [1, 9]: Bottom | Volatility (μg/l air) [1, 10]: 6.91 μg/l air

C/C=C(\C)C(=O)OCC/C=C\CC
Type [1, 9]: Top | Volatility (μg/l air) [1, 10]: 168.78 μg/l air

CC(C)(C)Cc1cccnc1 [3-(2,2-DIMETHYLPROPYL)PYRIDINE]
Volatility [1, 5]: 516.21 μg/l air | Type [1, 6]: TOP (perfuming compounds having a volatility ranging from 70,000 to 100 μg/l in air are referred to as “top notes”)
